From patent US12018280B2, “Method for freezing aggregates of pluripotent stem cell-derived cardiomyocytes” (KYOTO UNIVERSITY, priority 2016, dated 2024)

Columns and labels:
[1] = tested on: aggregate of GCaMP-cardiomyocytes derived from human iPS cells; test: GCaMP fluorescence wave (intracellular calcium) drug response of cardiomyocyte aggregates after freeze-thaw; format: cell-based; settings: for change of PtP (beat interval): 300 nM isoproterenol, 1 μM propranol; for change of TtP, CAD50, CAD70 and CAD90: 300 nM E4031, 1 μM astemizole, 1 μM nifekalant, 10 μM chromanole 293b, 30 μM mexiletine, 50 nM nifedipine
Text: A gene encoding GCaMP3, which is a calcium sensitive GFP that emits GFP fluorescence when bound to intracellular calcium, was introduced into a human iPS cell line (253G1) or a monkey iPS cell line (HT4M2) by AAVS1 region-specific gene transfer mediated by CRISPR. From the human GCaMP3-iPS cells, cardiomyocytes were induced in the same manner as in Section 1 to prepare an aggregate of cardiomyocytes that emitted GFP fluorescence in response to the change in intracellular calcium concentration during the beating. Also, from the monkey GCaMP-iPS cells, cardiomyocytes were induced using cytokines as described previously (Nat Biotechnol. 2007 September; 25(9): 1015-24. Epub 2007 Aug. 26) to prepare an aggregate of cardiomyocytes that emitted GFP fluorescence in response to the change in intracellular calcium concentration. Specifically, the monkey GCaMP-iPS cells were cultured for 24 hours with RPMI-B27 medium (Invitrogen) supplemented with human recombinant activin A (R&D Systems) (100 ng/ml), and then for four days with RPMI-B27 medium supplemented with human recombinant BMP4 (R&D Systems) (10 ng/ml). After the medium was replaced with RPMI-B27 medium without these cytokines, the cells were cultured for 21 days. The GCaMP-cardiomyocytes were dispersed into single cells with a trypsin/collagenase solution, and seeded on Sumilon PrimeSurface 96-well V-bottom plates at 1×10^5 cells/well to form uniform aggregates (700 to 1000 μm in diameter). The aggregates were used to analyze the change in intracellular calcium concentration wave, which synchronized the beating of cardiomyocytes.
derived from human iPS cells seven days after thawing to compare parameters of GCaMP fluorescence wave (change in intracellular calcium ion concentration) before and 10 minutes after the E4031 addition. Analyzed were time from the rise to the peak of fluorescence wave (TtP), and time from the rise to the peak of fluorescence wave and then to the decrease to 50% of the peak value (CaD50), to 70% of the peak value (CaD70), or to 90% of the peak value (CaD90) (FIG. 5-A).
E4031 was added to an aggregate of GCaMP-cardiomyocytes derived from human iPS cells seven days after thawing at 0, 0.3, 3, 30, or 300 nM to analyze the rate of change with E4031.

[2] = tested on: cardiomyocytes induced from pluripotent stem cells; settings: cardiomyocytes induced by the method described in WO 2015/182765; cited from earlier work
[3] = tested on: aggregate of GCaMP-cardiomyocytes derived from human iPS cells; test: Cardiotoxicity of anthracycline in cardiomyocyte aggregates after freeze-thaw (GCaMP fluorescence); format: cell-based
Procedure: To detect cardiotoxicity of anthracycline anticancer agents, doxorubicin (10 μM) or daunorubicin (20 μM), was added for 24 hours to an aggregate of GCaMP-cardiomyocytes derived from human iPS cells seven days after thawing. The intracellular calcium wave was plotted with GCaMP fluorescence for an aggregate of cardiomyocytes without any agent (control) (FIGS. 8-A, 8-B), three days after the addition of doxorubicin (FIG. 8-C), or three days after the addition of daunorubicin (FIG. 8-D).
The change in parameters of GCaMP fluorescence wave was analyzed with the addition of doxorubicin (10 μM) or daunorubicin (20 μM) (FIGS. 9-A, 9-B).

[4] = 50 μM ryanodine, seven days after thawing
[5] = doxorubicin 10 μM or daunorubicin 20 μM

Compound: CC(C)NCC(O)c1ccc(O)c(O)c1 (centres unmarked) [isoproterenol]
- change of PtP (beat interval) [1, 4]: decreased PtP

Compound: Cn1c(NCCN(CCO)CCCc2ccc([N+](=O)[O-])cc2)cc(=O)n(C)c1=O [nifekalant]
- change of TtP, CAD50, CAD70 and CAD90 ([1]; seven days after thawing): extended

Compound: Cc1cccc(CCN2CCC(C(=O)c3ccc(NS(C)(=O)=O)cc3)CC2)n1 [E4031]
- effect on action potential [2]: prolongation of action potential
- change of TtP, CAD50, CAD70 and CAD90 ([1]; seven days after thawing): extended
- extension of all GCaMP fluorescence wave parameters (TtP, CaD50, CaD70, CaD90) ([1]; 300 nM, 10 minutes after addition vs before, aggregate seven days after thawing): around 40%
- concentration at or above which TtP, CAD50, CAD70 and CAD90 were extended in a concentration-dependent manner ([1]; tested at 0, 0.3, 3, 30, 300 nM, seven days after thawing): ≥ 3 nM

Compound: CCS(=O)(=O)N(C)[C@H]1c2cc(C#N)ccc2OC(C)(C)[C@@H]1O [chromanole 293b]
- effect on action potential [2]: prolongation of action potential
- change of TtP, CAD50, CAD70 and CAD90 ([1]; seven days after thawing): extended

Compound: CC(C)NCC(O)COc1cccc2ccccc12 (centres unmarked) [propranol]
- change of PtP (beat interval) [1, 4]: increased PtP

Compound: ryanodine
- change of PtP (beat interval) [1, 4]: increased PtP
- peak value of GCaMP fluorescence (PeakValue, intracellular calcium increase) [1, 4]: decreased

Compound: Cc1cccc(C)c1OCC(C)N (centres unmarked) [mexiletine]
- change of TtP, CAD50, CAD70 and CAD90 ([1]; seven days after thawing): extended

Compound: COc1ccc(CCN2CCC(Nc3nc4ccccc4n3Cc3ccc(F)cc3)CC2)cc1 [astemizole]
- change of TtP, CAD50, CAD70 and CAD90 ([1]; seven days after thawing): extended

Compound: COc1cccc2c1C(=O)c1c(O)c3c(c(O)c1C2=O)C[C@@](O)(C(C)=O)C[C@@H]3O[C@H]1C[C@H](N)[C@H](O)[C@H](C)O1 [daunorubicin]
- amplitude of GCaMP fluorescence wave [3, 5]: tended to decrease significantly
- change of PtP [3, 5]: significantly decreased
- change of TtP and CAD [3, 5]: not significantly changed
- intracellular calcium wave findings (cardiotoxicity) ([3]; doxorubicin 10 μM or daunorubicin 20 μM added for 24 hours, three days after the addition): short PtP, tachycardia, variable heartbeat interval, and arrhythmia
